The text below walks through data of patent publication US20250243227A1, “IDURONIDASE STABILIZERS AND USES THEREOF” (Academia Sinica, priority 2022, published 2025).

Series [1] concerns the target T1, rh-α-IDUA in GM01391 fibroblasts (Homo sapiens (Human), UniProt P35475). Nature of the series: Cell-based rh-α-IDUA stabilization: intracellular IDUA activity in GM01391 fibroblasts. The following applies: for change of IDUA activity on co-treatment versus rh-α-IDUA alone / enhancement of IDUA activity versus rh-α-IDUA alone: rh-α-IDUA 0.1 nM + compound 100 μM (100 aM/100 M [sic] in the source). The protocol:
(§1) FIG. 1. The cell-based rh-α-IDUA stabilization study of the compounds of Example 1/rh-α-IDUA in GM01391 fibroblasts. (A) Preliminary cell-based screening of compounds of Example 1 by the co-treatment of rh-α-IDUA (0.1 nM) with 12 or 27b ([…]); (B) A dose-dependent experiment for 12, 27a, or 27b with 1 nM of rh-α-IDUA; (C) Co-treatment of 12 and rh-α-IDUA (1 or 0.1 nM) on IDUA activity; and (D) 12/rh-α-IDUA co-treatment on HS reduction in cells. Each bar represents the mean±SD of three determinations. *P<0.05; **P<0.01; ***P<0.001 compared to rh-α-IDUA alone, as determined by one-way ANOVA with Dunnett post-hoc analysis.
To this purpose, GM01391 fibroblasts were treated with a combination of rh-α-IDUA (0.1 nM) and compounds 12, and 27a-c ([…]); or with rh-α-IDUA for 1 day, followed by a 1-day wash-out. To measure the intracellular IDUA activity, the corresponding cells were harvested and lysed before the incubation with the fluorogenic substrate. Results are illustrated in FIG. 1.

Series [2] has as its target recombinant human α-IDUA (rh-α-IDUA, Aldurazyme®) (Homo sapiens (Human), UniProt P35475). The series can be described thus: IDUA inhibition assay (fluorogenic substrate 4MU-IdoA). It counts as biochemical. The following applies: for IC50: apparent IC50 against rh-α-IDUA, 4-MU-IdoA substrate, pH 3.5. The protocol: Compounds were mixed with recombinant human α-IDUA (rh-α-IDUA, Aldurazyme®, 1.2 nM as the final concentration) and the fluorogenic substrate, […] (4MU-IdoA; Cayman), at a final concentration of 100 μM in pH 3.5 buffer (50 mM NaOAc and 150 mM NaCl), then incubated in a 384-well microplate at 37° C. for 30 min. Stop solution (500 mM Na2CO3, pH 10.8) was added and fluorescence was read on a CLARIOstar® microplate reader (BMG LABTECH) at 355 nm excitation and 460 nm emission. Raw fluorescence counts were background subtracted, as defined by counts from substrate solution only. Inhibitory screening was performed and the active compounds were selected and further tested at lower concentration to determine their IC50 values and Ki values.
The compounds of Example 1 were evaluated on their inhibitory potential against rh-α-IDUA, and their apparent IC50 values were determined by using the fluorogenic substrates 4-methylumbelliferyl-α-iduronide (4-MU-IdoA) and results are shown in Table 1.

For series [3], the target named is rh-α-IDUA in GM02846 fibroblasts (Homo sapiens (Human), UniProt P35475). The series can be described thus: Cell-based rh-α-IDUA stabilization: IDUA activity in GM02846 fibroblasts. The following applies: co-treatment with rh-α-IDUA. From the text: (§2) FIG. 2. The cell-based rh-α-IDUA stabilization study of 12/rh-α-IDUA in GM02846 fibroblasts. (A) IDUA activity, and (B) the reduction of HS; Each bar represents the mean±SD of three determinations. *P<0.05; **P<0.01; ***P<0.001 compared to rh-α-IDUA alone, as determined by one-way ANOVA with Dunnett post-hoc analysis.
(§3) HS of the in situ treated fibroblasts were extracted and chemically cleaved to generate HS disaccharides as the released biomarker, which could be quantitatively measured via LC-MS/MS with a synthesized novel disaccharide by us as the internal standard. With this established method for cell-based HS analysis, the qualified CIdoA analogue 12 was further evaluated.

The target of series [4] is T1, rh-α-IDUA in GM01391 fibroblasts. Nature of the series: Cell-based rh-α-IDUA stabilization: intracellular IDUA activity in GM01391 fibroblasts. To be noted: co-treatment with rh-α-IDUA; 1-day treatment followed by 8-day wash-out; data not shown.
In series [5] the test system is heparan sulfate (HS) in GM01391 fibroblasts. The series can be described thus: Cell-based HS analysis (LC-MS/MS of HS disaccharides) in GM01391 fibroblasts. Further details: species or system human. To be noted: co-treatment with rh-α-IDUA. The protocol: as §1
Generally, accumulation of GAGs could be observed in MPS patients due to the dysfunction of any lysosomal enzymes involved in the degradation of GAGs including IDUA associated with MPSI, which means the enhanced efficacy of protein drugs by the co-treatment with protein stabilizers could be evaluated more directly by the improved reduction of GAGs than the increased activity of MPS-related lysosomal enzymes. As a result, a robust method for quantitative detection of HS, one of the types of GAGs excessively stored in MPS I patients, was established by us for the evaluation of potential therapeutic effect of compound 12 in MPSI. […]

Series [6] deals with heparan sulfate (HS) in GM02846 fibroblasts. The series can be described thus: Cell-based HS analysis (LC-MS/MS of HS disaccharides) in GM02846 fibroblasts. More on the design: species or system human. The following applies: combination with rh-α-IDUA.
Excerpt: as §2
Generally, accumulation of GAGs could be observed in MPS patients due to the dysfunction of any lysosomal enzymes involved in the degradation of GAGs including IDUA associated with MPSI, which means the enhanced efficacy of protein drugs by the co-treatment with protein stabilizers could be evaluated more directly by the improved reduction of GAGs than the increased activity of MPS-related lysosomal enzymes. As a result, a robust method for quantitative detection of HS, one of the types of GAGs excessively stored in MPS I patients, was established by us for the evaluation of potential therapeutic effect of compound 12 in MPSI.
as §3

[7] abbreviates: rh-α-IDUA 1 nM + compound 500 μM.

T1 sequence (P35475 26-653): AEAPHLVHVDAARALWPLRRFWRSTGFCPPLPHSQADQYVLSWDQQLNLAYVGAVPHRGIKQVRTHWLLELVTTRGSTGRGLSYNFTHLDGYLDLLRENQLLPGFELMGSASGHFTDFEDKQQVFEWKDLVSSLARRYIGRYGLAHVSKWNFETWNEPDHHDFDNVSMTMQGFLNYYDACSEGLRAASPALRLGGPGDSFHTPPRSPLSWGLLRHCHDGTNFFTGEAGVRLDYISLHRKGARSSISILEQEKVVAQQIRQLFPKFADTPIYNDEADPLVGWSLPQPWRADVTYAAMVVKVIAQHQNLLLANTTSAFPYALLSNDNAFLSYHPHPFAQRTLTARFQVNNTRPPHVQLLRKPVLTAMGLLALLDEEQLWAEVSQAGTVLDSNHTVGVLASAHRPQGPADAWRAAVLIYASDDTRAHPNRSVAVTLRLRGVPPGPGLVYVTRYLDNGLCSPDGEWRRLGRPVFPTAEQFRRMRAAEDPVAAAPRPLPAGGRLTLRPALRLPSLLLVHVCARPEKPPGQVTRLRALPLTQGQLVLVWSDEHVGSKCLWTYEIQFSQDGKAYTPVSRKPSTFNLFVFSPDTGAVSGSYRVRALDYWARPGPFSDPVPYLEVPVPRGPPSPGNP
Chain of recombinant human α-IDUA (rh-α-IDUA, Aldurazyme®) (P35475 26-653): as above
Chain of rh-α-IDUA in GM02846 fibroblasts (P35475 26-653): as above

Turning to `O=C(Cc1ccccc1OP(=O)(O)O)NCC[C@@H]1O[C@@H](C(=O)O)[C@@H](O)[C@H](O)[C@H]1O` [Compound 27c], the “change of IDUA activity on co-treatment versus rh-α-IDUA alone” value in series [1] (1 day, 1-day wash-out) is listed as “moderate reduction of IDUA activity”. Moreover, the IC50 in series [2] worked out at 1 µM.

As for `NCC[C@@H]1O[C@@H](C(=O)O)[C@@H](O)[C@H](O)[C@H]1O` [Compound 12], the “rh-α-IDUA activity on co-treatment” value in series [3] was “dose-dependently enhanced”. For the same molecule, the “time course of enhancement of IDUA activity” value in series [4] is “could be maintained”. In addition, the “enhancement of IDUA activity versus rh-α-IDUA alone” value in series [1] (1 day, 1-day wash-out) stood at 1.4 fold. In addition, in series [1] (setting [7]), the “IDUA activity with combined treatment versus rh-α-IDUA alone” value was “three”. Further, the “IDUA activity, dose-dependence of co-treatment versus rh-α-IDUA alone” value in series [1] (rh-α-IDUA 1 or 0.1 nM) is reported as “enhanced by the 12/rh-α-IDUA co-treatment in a dose-dependent manner”. Further, the Ki in series [2] (against rh-α-IDUA) turned out to be 4 µM. The IC50 in series [2] was 6.7 µM. Further, the “reduction of accumulated HS versus rh-α-IDUA alone” value in series [5] is “statistically significantly improved reduction”. Besides, the “reduction of HS versus rh-α-IDUA alone” value in series [6] was “significant reduction of HS”.

For the molecule `O=C(Cc1ccc(OP(=O)(O)O)cc1)NCC[C@@H]1O[C@@H](C(=O)O)[C@@H](O)[C@H](O)[C@H]1O` [Compound 27a], the “change of IDUA activity on co-treatment versus rh-α-IDUA alone” value in series [1] (1 day, 1-day wash-out) is “barely improved”. In series [1] (setting [7]), the “IDUA activity on co-treatment at 500 μM” value is listed as “suppressed”. Further, the IC50 in series [2] was 5.4 ± 0.5 µM.

Take `O=C(Cc1cccc(OP(=O)(O)O)c1)NCC[C@@H]1O[C@@H](C(=O)O)[C@@H](O)[C@H](O)[C@H]1O` [Compound 27b]: the “enhancement of IDUA activity versus rh-α-IDUA alone” value in series [1] (1 day, 1-day wash-out) is reported as 1.6 fold. Moreover, the “enhancement of IDUA activity at 500 μM” value in series [1] (setting [7]) is 1.7 fold. Also, the IC50 in series [2] came to 4 ± 0.5 µM.

As for `NCC[C@@H]1N[C@@H](C(=O)O)[C@@H](O)[C@H](O)[C@H]1O` [Compound 23], in series [2] (250 μM compound, rh-α-IDUA), the “IC50 (μM), NI = no inhibition at 250 μM” value is recorded as “NI^a (NI refers to less than 10% inhibition at 250 μM.)”.

B1: rh-α-IDUA: recombinant human α-iduronidase, enzyme replacement protein (Aldurazyme®) (protein, UniProt P35475 28-653, looked up)
Alpha-L-iduronidase: APHLVHVDAARALWPLRRFWRSTGFCPPLPHSQADQYVLSWDQQLNLAYVGAVPHRGIKQVRTHWLLELVTTRGSTGRGLSYNFTHLDGYLDLLRENQLLPGFELMGSASGHFTDFEDKQQVFEWKDLVSSLARRYIGRYGLAHVSKWNFETWNEPDHHDFDNVSMTMQGFLNYYDACSEGLRAASPALRLGGPGDSFHTPPRSPLSWGLLRHCHDGTNFFTGEAGVRLDYISLHRKGARSSISILEQEKVVAQQIRQLFPKFADTPIYNDEADPLVGWSLPQPWRADVTYAAMVVKVIAQHQNLLLANTTSAFPYALLSNDNAFLSYHPHPFAQRTLTARFQVNNTRPPHVQLLRKPVLTAMGLLALLDEEQLWAEVSQAGTVLDSNHTVGVLASAHRPQGPADAWRAAVLIYASDDTRAHPNRSVAVTLRLRGVPPGPGLVYVTRYLDNGLCSPDGEWRRLGRPVFPTAEQFRRMRAAEDPVAAAPRPLPAGGRLTLRPALRLPSLLLVHVCARPEKPPGQVTRLRALPLTQGQLVLVWSDEHVGSKCLWTYEIQFSQDGKAYTPVSRKPSTFNLFVFSPDTGAVSGSYRVRALDYWARPGPFSDPVPYLEVPVPRGPPSPGNP
As to B1, the “IDUA activity after treatment with rh-α-IDUA alone” value in series [1] (rh-α-IDUA 0.1 nM, 1 day, 1-day wash-out) was “dramatically increased”.

In general, IC50 refers to the concentration at which inhibition is half-maximal. For orientation: Ki means a dissociation constant, usually derived from enzyme kinetics or from competition with a known ligand.
